Melting point data for 87 compounds are collected here from a melting point compilation (Tetko et al.; mined from patent text by program, amines drawn as free bases though some values may be those of a salt).

Bounds are passed on as bounds.

By melting point is commonly meant the temperature, or range, at which the solid turns liquid.

`Nc1c(F)c(N2CCCC2)c(F)c2c1c(=O)c(C(=O)O)cn2C1COC1` came in with a melting point of 250 to 253 °C.

In turn, `O=C1c2cccc(-n3c(=O)[nH]c4ncccc4c3=O)c2C2CCCCN12` (configuration not stated) came in with a melting point greater than 290 °C. In the case of `CCOC(=O)c1c(C)nc2sc3c(c2c1-c1ccccc1)CCCC3`, the melting point is 118 to 120 °C.

Consider `Fc1ccc(-c2[nH]cc(-c3c(F)c(F)nc(F)c3F)c2-c2ccncc2)cc1`, for which the melting point was greater than 300 °C. Take `CNc1ccc(-c2ncn(-c3ccc(OC(F)(F)F)cc3)n2)cc1`: the melting point lay within 121 to 123 °C.

For `COc1ccccc1OCC(O)CN1CCC(N2CCN(c3ccc(Cl)cc3)C2=O)CC1` (configuration not stated), the melting point was 136 to 137 °C. Regarding `Cc1ccccc1C(=O)Nc1ccc(-n2nc(C(F)(F)F)cc2C2CC2)cc1`, the melting point was 143 to 146 °C.

Turning to `Cc1csc(C(=O)N2CCCC2)c1-n1cccc1`, the melting point came out at 178 °C. For `Cc1ccccc1NN=C(Cl)c1ccccc1`, the melting point was in the range of 64.5 to 66 °C.

The compound `CCOC(=O)Cc1c(C(=O)O)c(Br)c(C(=O)c2ccc(Cl)cc2)n1C` displayed a melting point of 183 to 185 °C. With `C=C(Cn1ccnc1)c1ccccc1OCc1ccc(-c2ccccc2)cc1`, the melting point lay in the range of 90 to 92 °C. Turning to `O=C(O)Cc1sc(NC(=O)c2cc(Br)ccc2O)nc1-c1ccccc1`, the melting point was 284 to 286 °C.

Compound `CN1CC(CCCl)Oc2ncc(Cl)cc2C1=S` (configuration not stated) displayed a melting point of 125 to 127 °C.

Turning to `CCN(CC)Cc1ccc(CN2C(=O)COc3ccc(C=C4SC(=O)NC4=O)cc32)cc1`, the melting point was 244 to 246 °C.

For `N#Cc1ccc2nc(N[C@@H]3CCc4ccccc43)ccc2c1`, the melting point was 164 °C. In turn, `N#Cc1ccc(-c2cn(-c3ccc(Br)cc3)c(SCc3cccnc3)n2)cc1` registered a melting point of 177 to 178 °C. As for `O=C1c2c(ccc3c2OCCO3)S(=O)(=O)N1CCCCO`, the figure is 119 to 122 °C; as for `CC(c1oc2ccccc2c(=O)c1-c1cccc(F)c1)n1nc(-c2cc(O)cc(Cl)c2)c2c(N)ncnc21` (configuration not stated), 122 to 124 °C. As for `COc1cc2c(cc1Nc1ncc(Cl)c(N[C@@H]3CCCC[C@H]3NS(C)(=O)=O)n1)CCN(CC(=O)N1CCCC1)CC2`, the figure is 120 to 135 °C. In turn, `O=C(c1ccc2c(c1)OCCO2)c1ccc2[nH]c(=O)nc(-c3cccc(Cl)c3)c2c1` showed a melting point of 255 °C. `CCn1cc(C(=O)O)c(=O)c2cc(F)c(N3CC4CCCC3CN4)c(F)c21` (configuration not stated): the melting point lay within 245 to 250 °C.

On to `Cc1cc2c(cc1O)OCCC2=O`, for which the melting point fell in the range of 185 to 186 °C. As to `CCCCCCCC(=O)c1ccc(CCC(C)(CCOC(C)=O)NC(C)=O)cc1` (configuration not stated), the melting point fell in the range of 83 to 84 °C. The compound `Cc1ccccc1-c1ccc(C(=O)N2Cc3ccc(C(=O)NCc4ccc5c(c4)OCO5)n3Cc3ccccc32)cc1C` registered a melting point of 149 to 151 °C. With `CC(C)C(C(=O)O[C@H]1C[C@H](O)C=C2C=C[C@H](C)[C@H](CC[C@@H]3C[C@@H](O)CC(=O)O3)[C@H]21)C(C)C`, the melting point was in the range of 210 to 211 °C. With `Oc1c(Sc2ccccc2)sc2ccccc12` the figure was 71 to 73 °C; with `CS(=O)(=O)c1ccc(-c2c(Br)c3cccccc-3c2-c2ccccc2)cc1`, 172 to 173 °C. With `Cc1oc(=O)oc1CN1CCN(c2cc3c(cc2F)c(=O)c(C(=O)O)c2n3C(c3ccccc3)S2)CC1` (configuration not stated) the figure was 201 to 202 °C. As for `COC(=O)c1ccc(-n2c(C)nc3ccccc32)cc1`, the figure is 153 to 154 °C; as for `CC(=O)c1c(C)[nH]c(C)c1C`, 204 to 207 °C. Compound `N#Cc1cc(C=Cc2ccc(N(c3ccccc3)c3ccccc3)cc2)c(C#N)cc1C=Cc1ccc(N(c2ccccc2)c2ccccc2)cc1` showed a melting point of 260 °C. Regarding `COc1ccc(Cc2nc3c(c4c2[nH]c2ccccc24)C(O)CC(C)(C)C3)cc1` (configuration not stated), the melting point worked out at 146 °C. In the case of `COC(=O)[C@@]12CN(Cc3ccccc3)C[C@@H]1[C@@](O)(c1cccc(OC)c1)CC[C@H]2c1ccccc1` (racemic), the melting point is 118 °C. In turn, `COc1ccc(N2CCOCC2)cc1NC(=S)C(=O)Nc1ccc(F)cc1` yielded a melting point of 206 to 208 °C. As to `O=C(O)CCC(=NO)c1ccc(-c2ccc(C(F)(F)F)cc2)cc1`, the melting point was 134 to 136 °C.

Compound `Cc1ccc(C(=O)OCn2c(Br)c(Br)c(S(=O)(=O)C(F)(F)F)c2-c2ccc(Cl)cc2)cc1` gave a melting point of 74 to 78 °C. On to `CCOCCOC(=O)c1cc2cc(Br)ccc2nn1`, for which the melting point was 128 to 130 °C. `CCc1cn([C@@H]2CO[C@H](CO)O2)c(=O)[nH]c1=O` showed a melting point of 132 to 133 °C. With `CC(C)(C)[Si](C)(C)OCCOc1cccnc1Br` the figure was 81 °C. `CN(C(=O)NCC(=O)O)[C@H]1O[C@H](c2ccccc2Cl)c2cc(Cl)ccc2N(Cc2ccccc2)C1=O` (relative stereo) yielded a melting point of 153 to 155 °C. Turning to `NCCSc1ncccc1C(N)=O`, the melting point was 131 to 133 °C. As for `OCCC1(CCO)c2ccccc2Oc2ccccc21`, the figure is 144 to 145 °C.

Compound `CCOC(=O)c1cc2ccc(Oc3ccc(N)cc3)cc2oc1=O` came in with a melting point of 136 to 138 °C. `C#CCCCCNC(=O)c1cnc(OCC(O)CNC(C)(C)C)s1` (configuration not stated) had a melting point of 140 to 148 °C. Take `O=C(O)c1cn(-c2ccc(F)cc2)c2c(F)c(N3CCC(n4ccnn4)C3)c(F)cc2c1=O` (configuration not stated): the melting point was determined as 303 °C. Turning to `O=C(O)c1cc(=O)c(Oc2ccc(C3CCCCC3)cc2)co1`, the melting point lay within 187 to 190 °C. `NC(=O)C1CCC(OCCCN2CCN(c3cccc4sccc34)CC2)CC1` (configuration not stated) had a melting point of 108 °C. `COc1cc(CC(=O)O)ccc1OCCCc1cn(-c2ccc(C(F)(F)F)cn2)nc1C(C)C` registered a melting point of 134 to 135 °C. With `CC(=O)Nc1ccc(S(=O)(=O)NCCc2ccccc2)cc1` the figure was 98 °C. For `COc1ccc(-c2sc3ccccc3c2Oc2ccc(OCc3ccccc3)cc2)cc1F`, the melting point lay within 122 to 123 °C. In the case of `CCn1c(=O)ccc2cnc(Nc3ccccc3)nc21`, the melting point is 203 to 204 °C.

The compound `CC(=O)Nc1ccc(C=CC(=O)N2CCc3c([nH]c4ccccc34)C2c2ccc3c(c2)OCO3)cc1` (configuration not stated) registered a melting point of 185 °C. As to `Cc1ccc(-c2ccc3c(c2)C=C(C(=O)Nc2ccc(CN4CCCCC4)cc2)CC(C)O3)cc1` (configuration not stated), the melting point fell in the range of 175 to 176 °C. Consider `CC(C)c1ccc2c(c1)c(S(=O)(=O)c1ccccc1)c(CC(C)(C)C(=O)O)n2Cc1ccc(N)cc1`, for which the melting point was 290 °C. `CC(C)(NC(=O)Cc1cccc2ccccc12)C(O)c1ccccc1` (configuration not stated) showed a melting point of 106 to 107 °C. As for `O=c1[nH]c(Cl)nc2c1ncn2COCCO`, the figure is greater than 310 °C; as for `COC(=O)NC(=O)n1cc(C(=O)c2ccn3c2CSC3c2cccnc2)c2ccc(OCc3ccccc3)cc21` (configuration not stated), 152 to 153 °C; as for `Cc1cccc2c1CCCC2c1c[nH]cn1` (configuration not stated), 135 °C. Regarding `CC(CC(=O)O)NC(=O)OCC1c2ccccc2-c2ccccc21` (configuration not stated), the melting point lay within 135 to 143 °C. `CCCOc1cccc(NC(=O)c2ccccc2C)c1` came in with a melting point of 92 to 94 °C. As to `OCC1(CO)COC(c2nc(-c3ccccc3)c(-c3ccccc3)n2Cc2ccccc2)OC1`, the melting point was 186 to 188 °C. Compound `O=NN(CCCl)C(=O)NCCOC(=O)c1cccnc1` returned a melting point of 63 to 64 °C. Regarding `O=CN(O)C(CO)CS(=O)(=O)c1ccc(-c2ccc(OC(F)(F)F)cc2)cc1` (configuration not stated), the melting point lay in the range of 167 to 168 °C. In the case of `COc1ccc(S(=O)(=O)C(CC=C(C)C)(Cc2cccnc2)C(=O)O)cc1` (configuration not stated), the melting point was 117 to 119 °C. As for `CCCC(NC=O)C1(c2ccc(Cl)cc2)CCC1` (configuration not stated), the melting point fell in the range of 97.5 to 98.5 °C. As for `COc1ccc(C(C)(C)C)cc1S(N)(=O)=O`, the melting point was in the range of 156 to 158 °C. The compound `COC(=O)c1sc2nc(C(C)C)ccc2c1O` registered a melting point of 80 to 81 °C. The compound `O=C(NNS(=O)(=O)c1ccccc1)c1cnc2ccccc2c1` came in with a melting point of 249 to 250 °C. `C=CCOc1ccccc1C=NNC(=N)N` returned a melting point of 124 °C.

Consider `CC(C)c1onc2c1c(=O)n(C)c(=O)n2C`, for which the melting point came out at 106 °C. With `Cc1ccc(C(=O)c2c(O)cc(C(=O)O)cc2[N+](=O)[O-])cc1` the figure was 250 to 251 °C. `CC#Cc1c(C#N)nn(-c2c(Cl)cc(C(F)(F)F)cc2Cl)c1N` registered a melting point of 226 to 228 °C.

The compound `ClCCCn1c(Cc2ccccc2)nc2ccccc21` registered a melting point of 112 °C.

As for `c1ccc(C2NCCNCc3ccccc32)cc1` (configuration not stated), the melting point turned out to be 125 °C.

`COc1ccc(/C=C/c2ccncc2)cc1OC1CCCC1` yielded a melting point of 108 °C. As to `CC1(C)CCC(C)(C)c2cc(COc3c(C(=O)O)cccc3-c3ccccc3)ccc21`, the melting point was in the range of 144 to 146 °C. `COCC(=O)Nc1ccc2ncnc(Nc3cccc(Br)c3)c2c1` displayed a melting point of 190 to 191 °C. In the case of `CCCC(=O)N[C@H]1C[C@H](C(=O)OC)Nc2cc(Cl)cc(Cl)c21` (relative stereo), the melting point was 205 to 206 °C. Compound `Cc1nnc2n1-c1ccc([N+](=O)[O-])cc1C(c1ccccc1)=NC2` came in with a melting point of 233 to 234 °C. Regarding `CCCCn1c(=O)c(NC(=O)Nc2c(C(C)C)ccc(NC(=O)c3cccnc3)c2C(C)C)c(-c2cccc(OC)c2)c2cccnc21`, the melting point lay within 179 to 180 °C. As for `CCc1nn(Cc2cc(O)n[nH]2)c(CC)c1Oc1cc(Cl)cc(Cl)c1`, the melting point was in the range of 142 to 144 °C. In turn, `CCN(CC)C(=O)n1cnc(S(=O)(=O)c2cc(F)c(C#N)cc2F)n1` displayed a melting point of 98 °C. For the compound `COc1ccc(Br)cc1N1CCCC1`, the melting point lay within 47 to 48 °C. With `N#Cc1cccc(COc2ccc3ccccc3c2)c1` the figure was 60 to 61 °C. Regarding `CC1(C)CCc2c(-c3ccoc3)nc3sc4c(NCCCN5CCCC5=O)ncnc4c3c2C1`, the melting point lay within 194 to 195 °C.

Turning to `COc1ccc2c(c1)Sc1c(cc(OC)c(OC)c1Br)N2C(C)=O`, the melting point was in the range of 147 to 149 °C. As for `CN1C(=O)CN(CCc2ccccc2)C1=O`, the figure is 113 to 114 °C.
